“Also recorded” adds a separate entry of the source.

Holding throughout (format): cell-based, human
For experiment [1], the system named is KBM7 cells.
Experiment [2] concerns KBM7 cells. This is another data set of the same source.
Experiment [3] relates to KBM7 cells. This is another data set of the same source.

Take TRAIL: the Cell viability result with KBM7 cells [1] is reported as “decreased dramatically”. As for polybrene, the infection efficiency with KBM7 cells [2] was 33%. With `Cc1ccc(NC(=O)c2ccc(CN3CCN(C)CC3)cc2)cc1Nc1nccc(-c2cccnc2)n1` [Gleevec, imatinib], in the experiment with KBM7 cells [3], the “sensitivity to Gleevec (apoptosis)” value is listed as “very sensitive; also recorded: sensitive”. On to protamine sulphate, for which the infection efficiency in the experiment on KBM7 cells [2] was 44%.

Values taken from patent US12577587B2 (priority 2009, dated 2026).
